Values of other authors as cited in patent US7820851B2, “Isotopically labeled polyfluorinated compound useful as an imaging tracer” (PerkinElmer Health Sciences, Inc., priority 2006, dated 2010).
Read-outs that look alike come from different tables or passages of the source.

How the values were obtained:
[1] = reported value; context: PFOA levels in American residents

In the case of O=C(O)C(F)(F)C(F)(F)C(F)(F)C(F)(F)C(F)(F)C(F)(F)C(F)(F)F [PFOA, Perfluorooctanoic acid], the “primary tissues of distribution of PFOA-derived carbon-14” value (female rats) is given as “liver, plasma, and kidney”, the “elimination of PFOA-derived radioactivity in the urine” value (female rats, carbon-14 labeled PFOA) is given as “rapidly” and the “primary tissues of distribution of PFOA-derived carbon-14” value (male rats) is given as “liver and plasma”. The “administered carbon-14 eliminated in the urine” value (male rats, carbon-14 labeled PFOA, in the same period) was 6% and the elimination half-life [1] was 4 years.
